{"source": "patent US20240408027A1", "about": "“HIGH DRUG LOADING POLYMERS” (priority 2021, published 2024)", "test": "Drug loading of paclitaxel, etoposide, chloroquine into core library (Example 3)"}
{"compound": "COc1cc([C@@H]2c3cc4c(cc3[C@@H](O[C@@H]3O[C@@H]5CO[C@@H](C)O[C@H]5[C@H](O)[C@H]3O)[C@H]3COC(=O)[C@H]23)OCO4)cc(OC)c1O", "note": "[etoposide]", "values": [{"measurement": "LE+LC, fold higher in the absence of H-bonding groups in the core", "setting": "100% B core", "result": "> 2", "unit": "×"}]}
{"compound": "CCN(CC)CCCC(C)Nc1ccnc2cc(Cl)ccc12", "note": "(stereo not drawn) [chloroquine]", "values": [{"measurement": "loading trend with core composition", "setting": "polymer:drug 1:1", "result": "increased loading with increasing H-bonding"}]}
{"compound": "CC(=O)O[C@H]1C(=O)[C@@]2(C)[C@H]([C@H](OC(=O)c3ccccc3)[C@]3(O)C[C@H](OC(=O)[C@H](O)[C@@H](NC(=O)c4ccccc4)c4ccccc4)C(C)=C1C3(C)C)[C@]1(OC(C)=O)CO[C@@H]1C[C@@H]2O", "note": "[Paclitaxel, paclitaxel]", "values": [{"measurement": "core composition at loading maximum", "setting": "polymer:drug 1:1", "result": 90, "unit": "% B"}]}
